In brackets after ≈: the same amount, converted by molar mass. Several values for one entry are separate records, joined by “and”; a condition that tells them apart may be missing. Identical values can stand only once.
Assays:
[1] = molecular target: T1, EthR protein (Mycobacterium tuberculosis, UniProt P9WMC1); test: Inhibition of interaction of EthR with its target DNA sequence (BIAcore); assay type: binding, M. tuberculosis H37Rv; settings: compound 3 μM, EthR 540 nM, 37° C.
Experimental: a) Measurement of the Activity of the Compounds on the Inhibition of Interaction of EthR with its Target DNA Sequence
The in vitro measurements of inhibition of binding of the EthR protein to its target DNA sequence were performed on a machine of BIAcore®2000 type (AB, Uppsala, Sweden).
The chips used are CM5 chips sold by the company GE Healthcare. Both the channels of a chip were activated with a solution containing 200 mM of EDC(N-ethyl-N′-(3-[…])carbodiimide) and 50 mM of NHS (N-hydroxysuccinimide). Next, streptavidin (500 ng/μl in a solution containing 10 mM of sodium acetate (pH 3.5) was injected over 12 minutes at a flow rate of 10 μl/minute. The 106-base-pair biotinylated DNA fragment corresponding to the ethA-R intergene region was deposited on one of the two channels of the chip at a rate of 200 ng/ml in order to obtain stable binding of streptavidin corresponding to 50 RU (resonance units). This DNA fragment was obtained by PCR using the chromosomal DNA of M. tuberculosis H37Rv as matrix and O-270: 5′-[…]-3′ (SEQ ID: No. 1) and O-271: 5′-biotin-[…]-3′ (SEQ ID: No. 2). The second channel was functionalized with a 113-base-pair biotinylated DNA fragment (fragment +14 to +127 of the bla gene of E. coli PCR-amplified using the following oligonucleotides: O-343: 5′-[…]-3′ (SEQ ID: No. 3) and O-344: 5′-biotin-[…]-3′ (SEQ ID: No. 4).
Measurement of the binding of the EthR protein to the immobilized DNA was performed at 37° C. in a reference buffer containing 10 mM of Tris-HCl (pH=7.5), 200 mM of NaCl, 0.1 mM of EDTA, 1 mM of DTT and 1% of DMSO at a flow rate of 20 μl/minute. The specific interaction (SI) of EthR with the 106-base-pair double-stranded DNA sequence, expressed in resonance units, corresponds to the difference in signal observed between the two channels.
For each inhibition measurement, the compounds of the invention are dissolved in the reference buffer at a concentration of 3 μM. The compounds of the invention are then incubated in the presence of the protein (540 nM) at 37° C. for 5 minutes, and each solution is then injected onto the two channels of the chip for 3 minutes at a flow rate of 20 μl/minute. The inhibition values are calculated at the end of the injection according to the following equation: […]
in which SIEthR corresponds to the value measured without ligand and SIEthR+ligand corresponds to the value measured in the presence of to ligand.

[2] = molecular target: T1, EthR protein; test: In vitro measurement of the IC50 (EthR/DNA binding, BIAcore); set-up: species or system M. tuberculosis H37Rv
Experimental: b) In Vitro Measurement of the IC50 of the Compounds of the Invention.
The in vitro measurement of this datum was performed according to the same principle as for the measurement of inhibition of the EthR/DNA binding using the BIAcore technique.
The specific interaction between EthR and the specific 106-bp DNA fragment was measured on a range of six concentrations of the compounds of the invention, this range extending from 0.11 μM to 27 μM. The IC50 values are then extrapolated from the sigmoid curves obtained.

[3] = test system: M. bovis BCG; assay type: cell-based, M. bovis BCG 1173P2; settings: from MIC of ETH alone (6 μM) and MIC of ETH with 25 μM compound
[4] = test system: M. tuberculosis H37Rv; test: Ethionamide-potentiating effect, fluorimetric detection on Bactec MGIT 960; assay type: cell-based; settings: for bacterial growth-inhibiting properties of the compound alone: 25 μM, no ETH (lines A5 and D3); for MIC: Mycobacterium tuberculosis, H37RV, read-out: MIC for ETH in the presence of compound; for MIC / potentiation of the ethionamide activity (factor): compound 25 μM
[5] = Measurement of the solubility (PBS pH 7.4 vs methanol, LC/MS); assay type: physicochemical; settings: pH 7.4, aqueous buffer, kinetic from dmso stock
Experimental: e) Measurement of the Solubility of the Compounds of the Invention
40 μl of a solution containing a compound of the invention at a concentration of 10 mM in DMSO were diluted in 1.960 ml of methanol, and another 40 μl were diluted in 1.960 ml of a PBS solution containing 675 mM of NaCl, 13.5 mM of KCl, 50 mM of Na2HPO4.2H2O and 10 mM of KH2PO4 at a pH of 7.4. The two solutions were stirred for 24 hours at room temperature, and then centrifuged for 5 minutes and filtered through 0.45 μm filters. 20 μl of each solution were then diluted in 118 μl of methanol and analyzed by liquid chromatography coupled to mass spectrometry (LC/MS). The solubility was determined by the ratio of the areas under the curve of the mass signal for the compound of the invention, according to the following equation: […]

[6] = strain 1%, no ETH, ligand 25 μM
[7] = strain 100%, ETH 0.025 μg/mL + ligand 25 μM
[8] = strain 100%, ETH 0.05 μg/mL + ligand 25 μM
[9] = strain 100%, ETH 0.1 μg/mL + ligand 25 μM
[10] = strain 100%, ETH 0.25 μg/mL + ligand 25 μM
[11] = strain 100%, no ETH, ligand 25 μM

T1 sequence (P9WMC1 whole entry, looked up): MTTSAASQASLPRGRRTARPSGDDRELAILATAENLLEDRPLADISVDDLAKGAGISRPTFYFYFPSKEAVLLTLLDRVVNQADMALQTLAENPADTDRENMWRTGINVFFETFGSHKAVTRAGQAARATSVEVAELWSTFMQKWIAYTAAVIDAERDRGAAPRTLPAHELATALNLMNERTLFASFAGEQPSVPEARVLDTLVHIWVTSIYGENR

O=C(CC1CC1)N1CCC(c2nc(-c3cccs3)no2)CC1 [Compound 33, 2-cyclopropyl-1-[4-(3-thiophen-2-yl[1,2,4]oxadiazol-5-yl)piperid-1-yl]ethanone]
inhibition at 3 µM [1]: 71%
IC50 [2]: 1120 nM
Potentiation % [3]: 2500%
bacterial growth-inhibiting properties of the compound alone [4]: absence of bacterial growth-inhibiting properties
MIC [4]: 0.05 µg/mL and 0.3 µM
State [4, 6]: R
fluorescence reading D + 0 [4, 6]: 0
fluorescence reading D + 1 [4, 6]: 0
fluorescence reading D + 5 (first column, c6) [4, 6]: 0
fluorescence reading D + 5 (second column, c7) [4, 6]: 0
fluorescence reading D + 6 [4, 6]: 1
fluorescence reading D + 7 (first column, c9) [4, 6]: 180
fluorescence reading D + 7 (second column, c10) [4, 6]: 319
fluorescence reading J + 8 [4, 6]: 400
State [4, 7]: R
fluorescence reading D + 0 [4, 7]: 0
fluorescence reading D + 1 [4, 7]: 0
fluorescence reading D + 5 (first column, c6) [4, 7]: 200
fluorescence reading D + 5 (second column, c7) [4, 7]: 353
fluorescence reading D + 6 [4, 7]: 400
fluorescence reading D + 7 (first column, c9) [4, 7]: 400
fluorescence reading D + 7 (second column, c10) [4, 7]: 400
fluorescence reading J + 8 [4, 7]: 400
State [4, 8]: S
fluorescence reading D + 0 [4, 8]: 0
fluorescence reading D + 1 [4, 8]: 0
fluorescence reading D + 5 (first column, c6) [4, 8]: 0
fluorescence reading D + 5 (second column, c7) [4, 8]: 0
fluorescence reading D + 6 [4, 8]: 0
fluorescence reading D + 7 (first column, c9) [4, 8]: 0
fluorescence reading D + 7 (second column, c10) [4, 8]: 0
fluorescence reading J + 8 [4, 8]: 0
State [4, 9]: S
fluorescence reading D + 0 [4, 9]: 0
fluorescence reading D + 1 [4, 9]: 0
fluorescence reading D + 5 (first column, c6) [4, 9]: 0
fluorescence reading D + 5 (second column, c7) [4, 9]: 0
fluorescence reading D + 6 [4, 9]: 0
fluorescence reading D + 7 (first column, c9) [4, 9]: 0
fluorescence reading D + 7 (second column, c10) [4, 9]: 0
fluorescence reading J + 8 [4, 9]: 0
State [4, 10]: S
fluorescence reading D + 0 [4, 10]: 0
fluorescence reading D + 1 [4, 10]: 0
fluorescence reading D + 5 (first column, c6) [4, 10]: 0
fluorescence reading D + 5 (second column, c7) [4, 10]: 0
fluorescence reading D + 6 [4, 10]: 0
fluorescence reading D + 7 (first column, c9) [4, 10]: 0
fluorescence reading D + 7 (second column, c10) [4, 10]: 0
fluorescence reading J + 8 [4, 10]: 0
State [4, 11]: R
fluorescence reading D + 0 [4, 11]: 0
fluorescence reading D + 1 [4, 11]: 0
fluorescence reading D + 5 (first column, c6) [4, 11]: 400
fluorescence reading D + 5 (second column, c7) [4, 11]: 400
fluorescence reading D + 6 [4, 11]: 400
fluorescence reading D + 7 (first column, c9) [4, 11]: 400
fluorescence reading D + 7 (second column, c10) [4, 11]: 400
fluorescence reading J + 8 [4, 11]: 400
solubility at 24 h [5]: 63.5 µg/mL (≈ 200 µM)

O=C(Cc1cccs1)N1CCC(c2nc(-c3cccs3)no2)CC1 [Compound 43, 2-thiophen-2-yl-1-[4-(3-thiophen-2-yl[1,2,4]oxadiazol-5-yl)piperid-1-yl]ethanone]
inhibition at 3 µM [1]: 93%
IC50 [2]: 520 nM
Potentiation % [3]: 2500%
bacterial growth-inhibiting properties of the compound alone [4]: absence of bacterial growth-inhibiting properties
MIC [4]: < 0.025 µg/mL and < 0.15 µM
potentiation of the ethionamide activity (factor) [4]: ≥ 40 fold
potentiation of the ethionamide activity (factor) ([4]; listed as compound 43): about 40 fold
State [4, 6]: R
fluorescence reading D + 0 [4, 6]: 0
fluorescence reading D + 1 [4, 6]: 0
fluorescence reading D + 5 (first column, c6) [4, 6]: 0
fluorescence reading D + 5 (second column, c7) [4, 6]: 0
fluorescence reading D + 6 [4, 6]: 0
fluorescence reading D + 7 (first column, c9) [4, 6]: 168
fluorescence reading D + 7 (second column, c10) [4, 6]: 292
fluorescence reading J + 8 [4, 6]: 400
State [4, 7]: S
fluorescence reading D + 0 [4, 7]: 0
fluorescence reading D + 1 [4, 7]: 0
fluorescence reading D + 5 (first column, c6) [4, 7]: 0
fluorescence reading D + 5 (second column, c7) [4, 7]: 0
fluorescence reading D + 6 [4, 7]: 0
fluorescence reading D + 7 (first column, c9) [4, 7]: 0
fluorescence reading D + 7 (second column, c10) [4, 7]: 0
fluorescence reading J + 8 [4, 7]: 0
State [4, 8]: S
fluorescence reading D + 0 [4, 8]: 0
fluorescence reading D + 1 [4, 8]: 0
fluorescence reading D + 5 (first column, c6) [4, 8]: 0
fluorescence reading D + 5 (second column, c7) [4, 8]: 0
fluorescence reading D + 6 [4, 8]: 0
fluorescence reading D + 7 (first column, c9) [4, 8]: 0
fluorescence reading D + 7 (second column, c10) [4, 8]: 0
fluorescence reading J + 8 [4, 8]: 0
State [4, 9]: S
fluorescence reading D + 0 [4, 9]: 0
fluorescence reading D + 1 [4, 9]: 0
fluorescence reading D + 5 (first column, c6) [4, 9]: 0
fluorescence reading D + 5 (second column, c7) [4, 9]: 0
fluorescence reading D + 6 [4, 9]: 0
fluorescence reading D + 7 (first column, c9) [4, 9]: 0
fluorescence reading D + 7 (second column, c10) [4, 9]: 0
fluorescence reading J + 8 [4, 9]: 0
State [4, 10]: S
fluorescence reading D + 0 [4, 10]: 0
fluorescence reading D + 1 [4, 10]: 0
fluorescence reading D + 5 (first column, c6) [4, 10]: 0
fluorescence reading D + 5 (second column, c7) [4, 10]: 0
fluorescence reading D + 6 [4, 10]: 0
fluorescence reading D + 7 (first column, c9) [4, 10]: 0
fluorescence reading D + 7 (second column, c10) [4, 10]: 0
fluorescence reading J + 8 [4, 10]: 0
State [4, 11]: R
fluorescence reading D + 0 [4, 11]: 0
fluorescence reading D + 1 [4, 11]: 0
fluorescence reading D + 5 (first column, c6) [4, 11]: 400
fluorescence reading D + 5 (second column, c7) [4, 11]: 400
fluorescence reading D + 6 [4, 11]: 400
fluorescence reading D + 7 (first column, c9) [4, 11]: 400
fluorescence reading D + 7 (second column, c10) [4, 11]: 400
fluorescence reading J + 8 [4, 11]: 400
solubility at 24 h [5]: 26.9 µg/mL (≈ 74.8 µM)

O=C(Nc1cccs1)N1CCC(c2nc(-c3cccs3)no2)CC1 [Compound 50, 4-(3-thiophen-2-yl[1,2,4]oxadiazol-5-yl)piperidine-1-carboxylic acid thiophen-2-ylamide]
inhibition at 3 µM [1]: 96%
IC50 [2]: 440 nM
solubility at 24 h [5]: 2.9 µg/mL (≈ 8.05 µM)

— patent US8338599B2, “Compounds having a potentiating effect on the activity of ethionamide and uses thereof” (priority 2006, dated 2012)
